{"source": "patent US20190307783A1", "about": "“USE OF ANTIVIRALS TO INHIBIT PROTOZOAN VIRUSES” (priority 2016, published 2019)", "key": {"Lgy LRV1 RDRP": {"target": "Lgy LRV1 RDRP (Leishmania RNA virus 1 - 4, UniProt Q02382)", "sequence (Q02382 whole entry)": "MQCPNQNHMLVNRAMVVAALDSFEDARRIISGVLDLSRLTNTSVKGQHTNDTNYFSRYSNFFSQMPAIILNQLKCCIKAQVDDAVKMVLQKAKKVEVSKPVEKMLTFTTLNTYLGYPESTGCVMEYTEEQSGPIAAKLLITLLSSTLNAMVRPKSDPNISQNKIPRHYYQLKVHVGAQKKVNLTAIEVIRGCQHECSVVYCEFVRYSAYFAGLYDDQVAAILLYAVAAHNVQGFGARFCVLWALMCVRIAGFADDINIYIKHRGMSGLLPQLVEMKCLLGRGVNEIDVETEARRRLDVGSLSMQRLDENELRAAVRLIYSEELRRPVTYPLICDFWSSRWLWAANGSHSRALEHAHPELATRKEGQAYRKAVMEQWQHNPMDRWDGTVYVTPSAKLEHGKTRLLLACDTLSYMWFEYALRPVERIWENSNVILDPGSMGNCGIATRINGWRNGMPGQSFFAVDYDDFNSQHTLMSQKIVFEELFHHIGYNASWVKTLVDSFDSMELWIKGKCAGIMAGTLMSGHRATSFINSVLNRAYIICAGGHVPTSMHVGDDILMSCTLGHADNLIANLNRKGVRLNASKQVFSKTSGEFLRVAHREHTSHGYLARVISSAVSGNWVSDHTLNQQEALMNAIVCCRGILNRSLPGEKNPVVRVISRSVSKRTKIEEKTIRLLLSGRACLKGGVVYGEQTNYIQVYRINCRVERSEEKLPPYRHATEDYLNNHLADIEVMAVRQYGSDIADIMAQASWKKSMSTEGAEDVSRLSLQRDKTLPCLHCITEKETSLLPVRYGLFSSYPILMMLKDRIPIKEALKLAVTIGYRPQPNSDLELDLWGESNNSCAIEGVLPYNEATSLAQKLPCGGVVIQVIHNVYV", "test": "RDRP assay of purified virions, [α-32P]UTP incorporation", "format": "biochemical, Leishmania RNA virus 1 (Lgy strain M4147)", "conditions": "concentrations up to 1000 μM; listed as 2CMA", "procedure": "RDRP assays were carried out with LRV1 virions purified from Lgy strain M4147 by an established cesium chloride (CsCl) equilibrium ultracentrifugation procedure {Widmer, 1989; Widmer, 1990}. Following separation, virus particles were detected and quantified by their reactivity with an anti-capsid antibody (FIG. 21). We reproducibly observed three overlapping ‘peaks’, designated low-, medium-, and high-density (LD, MD and HD) in order of increasing density. […] The densities of the Lgy LRV1 LD, MD and HD peaks were 1.29, 1.36 and 1.41 g/mL, in good agreement with the densities of L-A virus particles bearing ssRNA- and dsRNA- (1.31 and 1.41 g/mL, respectively) {Esteban, 1986}. […]\nTo measure RDRP activity, purified virions were allowed to incorporate [α-^32P]UTP in the presence of the remaining nucleoside triphosphates for 1 hour, a time chosen to allow one round of transcription or replication of the viral genome {Widmer, 1990}. RNA was purified and separated by native gel electrophoresis, and the products were visualized and quantified. […]\nRDRP activity of purified virions was measured using an [α-^32P]UTP incorporation assay described previously{Widmer, 1990}. […] The standards lane was excised and stained with ethidium bromide, while the radiolabeled products were detected by exposing an imaging plate for 24 hours and reading it with a FLA-5100 phosphoimager (Fujifilm, Tokyo, Japan). […]"}, "[1]": {"test_system": "LRV1 (LgyLRV1 capsid levels)", "test": "organism not typed", "conditions": "for LgyLRV1− population in washout, of total cell population / Parasites with LgyLRV1+ capsid levels in washout population: then drug-free media"}}, "note": "Entries after “also recorded” stand apart in the source; their conditions may differ. Read-outs that look alike come from different tables or passages of the source."}
{"smiles": "C[C@@]1(O)[C@H](O)[C@@H](CO)O[C@H]1n1cnc2c(N)ncnc21", "note": "[2′C-methyadenosine, 2′-C-methyladenosine]", "values": [{"measurement": "Inhibition of RDRP activity, in words", "setting": "Lgy LRV1 RDRP", "value": "did not measurably inhibit; also recorded: completely inactive"}, {"measurement": "LgyLRV1− population in washout, of total cell population", "setting": "[1]; 100 μM for four doublings", "value": 50, "unit": "%"}, {"measurement": "Parasites with LgyLRV1+ capsid levels in washout population", "setting": "[1]; 100 μM for four doublings", "value": 36, "unit": "%"}, {"measurement": "LgyLRV1− population in washout, of total cell population", "setting": "[1]; 100 μM for three doublings", "value": 31, "unit": "%"}, {"measurement": "Parasites with LgyLRV1+ capsid levels in washout population", "setting": "[1]; 100 μM for three doublings", "value": 55, "unit": "%"}, {"measurement": "Fold less LRV1 capsid expression", "setting": "[1]; 100 μM maintained for four cell doublings", "value": 16, "unit": "fold"}, {"measurement": "Fold less LRV1 capsid expression", "setting": "[1]; 100 μM maintained for three cell doublings", "value": 8, "unit": "fold"}, {"measurement": "Loss of LRV1 capsid and RNA at every cell doubling", "setting": "[1]; 100 μM, capsid flow cytometry and qRT-PCR", "value": 50, "unit": "%"}, {"measurement": "EC50", "setting": "[1]; 48 h, read-out: EC50 for 2CMA inhibition of LRV1 in the presence of allopurinol", "value": "~3000", "unit": "nM"}, {"measurement": "activity at 100 µM", "setting": "[1]; 48 h, read-out: Percent control (LRV1 capsid)", "value": 7, "unit": "%"}, {"measurement": "Selectivity for LRV1 versus L. guyanensis growth inhibition", "setting": "[1]; EC50 growth vs EC50 LRV1 capsid", "value": "at least 30 fold"}, {"measurement": "LRV1 capsid (geometric mean FU)", "setting": "[1]; LgyLRV1+, tested at 100 μM, 2 days", "value": 19, "unit": "FU"}, {"measurement": "EC50", "setting": "[1]; read-out: EC50 for LRV1 capsid inhibition", "value": "~3000", "unit": "nM"}, {"measurement": "Reduction in LRV1 capsid levels", "setting": "[1]; tested at 100 μM", "value": 12, "unit": "fold"}]}
